≈ marks a conversion by molar mass, not a printed value.
Tests used:
Assay type in all cases: cell-based
[1] = test system: A. baumannii ATCC 19606; assay: MIC determination, broth microdilution, ESKAPE panel; details: Acinetobacter baumannii, ATCC19606; iron-depleted cation-adjusted Mueller-Hinton broth, 2,2-dipyridyl 160 μM; 37° C., 18-20 hours; read-out: MIC A. baumannii ATCC 19606
Procedure: (§1) Minimum inhibitory concentration (MIC) is determined by a broth microdilution method according to the recommendation of the Clinical and Laboratory Standards Institute (CLSI) with minor modification. […] Strains of an ESKAPE panel (E. faecium ATCC 700221, S. aureus ATCC 29213, K. pneumoniae ATCC 43816, A. baumannii ATCC 19606, P. aeruginosa ATCC 27853 and Escherichia coli ATCC 25922) were obtained originally from the American Type Culture Collection (ATCC) and used for MIC determinations of compounds. The bacteria inoculum in the test is […].

[2] = test system: E. faecium ATCC 700221; assay: as above; details: Enterococcus faecium, ATCC700221; iron-depleted cation-adjusted Mueller-Hinton broth, 2,2-dipyridyl 160 μM; 37° C., 18-20 hours; read-out: MIC E. faecium ATCC 700221
Procedure: as §1

[3] = test system: Escherichia coli ATCC 25922; assay: as above; details: ATCC25922, iron-depleted cation-adjusted Mueller-Hinton broth, 2,2-dipyridyl 160 μM, 37° C., 18-20 hours, read-out: MIC E. coli ATCC 25922
Procedure: as §1

[4] = test system: K. pneumoniae ATCC 43816; assay: as above; details: Klebsiella pneumoniae, ATCC43816; iron-depleted cation-adjusted Mueller-Hinton broth, 2,2-dipyridyl 160 μM; 37° C., 18-20 hours; read-out: MIC K. pneumoniae ATCC 43816
Procedure: as §1

[5] = test system: P. aeruginosa ATCC 27853; assay: as above; details: Pseudomonas aeruginosa, ATCC27853; iron-depleted cation-adjusted Mueller-Hinton broth, 2,2-dipyridyl 160 μM; 37° C., 18-20 hours; read-out: MIC P. aeruginosa ATCC 27853
Procedure: as §1

[6] = test system: S. aureus ATCC 29213; assay: as above; details: Staphylococcus aureus, ATCC29213; iron-depleted cation-adjusted Mueller-Hinton broth, 2,2-dipyridyl 160 μM; 37° C., 18-20 hours; read-out: MIC S. aureus ATCC 29213
Procedure: as §1

[7] = test system: A.b TNP 41704; assay: MIC against A. baumannii clinical isolates, alone and in combination with antibiotics; details: for MIC: Acinetobacter baumannii, TNP41704, Compounds alone, read-out: MIC A.b TNP 41704
[8] = test system: A.b TNP 41708; assay: as above; details: for MIC: Acinetobacter baumannii, TNP41708, read-out: MIC A.b TNP 41708
Procedure: as §1

[9] = test system: A.b TNP 41709; assay: as above; details: for MIC: Acinetobacter baumannii, TNP41709, Compounds alone, read-out: MIC A.b TNP 41709

Compound	MIC [1] [µg/mL]	MIC [2] [µg/mL]	MIC [3] [µg/mL]	MIC [4] [µg/mL]	MIC [5] [µg/mL]	MIC [6] [µg/mL]	MIC [7] [µg/mL]	MIC A.b TNP 41704 ([7]; Compounds + meropenem (1:1)) [µg/mL]	MIC A.b TNP 41704 ([7]; Compounds + sulbactam (1:1)) [µg/mL]	MIC [8] [µg/mL]	MIC A.b TNP 41708 ([8]; Compounds + meropenem (1:1)) [µg/mL]	MIC A.b TNP 41708 ([8]; Compounds + sulbactam (1:1)) [µg/mL]	MIC [9] [µg/mL]	MIC A.b TNP 41709 ([9]; Compounds + meropenem (1:1)) [µg/mL]	MIC A.b TNP 41709 ([9]; Compounds + sulbactam (1:1)) [µg/mL]	MIC A.b TNP 41704 ([7]; Compounds + Imipenem (1:1)) [µg/mL]	MIC A.b TNP 41708 ([8]; Compounds + Imipenem (1:1)) [µg/mL]	MIC A.b TNP 41709 ([9]; Compounds + Imipenem (1:1)) [µg/mL]
C[C@]1(/C=N/NC(=O)Cc2ccc(O)c(O)c2)[C@H](C(=O)O)N2C(=O)C[C@H]2S1(=O)=O [Example 20, (2S,3R,5R)-3-((E)-(2-(2-(3,4-dihydroxyphenyl)acetyl)hydrazono)methyl)-3-methyl-7-oxo-4-thia-1-azabicyclo[3.2.0]heptane-2-carboxylic acid 4,4-dioxide]	64 (≈ 156 µM)	> 128	> 128	> 128	> 128	32 (≈ 77.8 µM)	> 128	8	4	> 128	8	8	> 128	8	16			
C[C@]1(/C=N/NC(=O)c2cccc(O)c2O)[C@H](C(=O)O)N2C(=O)C[C@H]2S1(=O)=O [Example 28, (2S,3R,5R)-3-((E)-(2-(2,3-dihydroxybenzoyl)hydrazono)methyl)-3-methyl-7-oxo-4-thia-1-azabicyclo[3.2.0]heptane-2-carboxylic acid 4,4-dioxide]	> 128	> 128	> 128	> 128	> 128	> 128	> 128	8	4	> 128	8	8	> 128	4	8			
C[C@]1(/C=N/NC(=O)c2ccc(O)cc2)[C@H](C(=O)O)N2C(=O)C[C@H]2S1(=O)=O [Example 29, (2S,3R,5R)-3-((E)-(2-(4-hydroxybenzoyl)hydrazono)methyl)-3-methyl-7-oxo-4-thia-1-azabicyclo[3.2.0]heptane-2-carboxylic acid 4,4-dioxide]	> 128	> 128	> 128	> 128	> 128	> 128	> 128	32	8	> 128	32	32	> 128	32	32			
COc1ccc(C(=O)N/N=C/[C@@]2(C)[C@H](C(=O)O)N3C(=O)C[C@H]3S2(=O)=O)cc1 [Example 35, (2S,3R,5R)-3-((E)-(2-(4-methoxybenzoyl)hydrazono)methyl)-3-methyl-7-oxo-4-thia-1-azabicyclo[3.2.0]heptane-2-carboxylic acid 4,4-dioxide]	> 128	> 128	> 128	> 128	> 128	128 (≈ 324 µM)	> 128	32	4	> 128	1	16	> 128	32	4			
C[C@]1(/C=N/NC(=O)C2CCN(C(=O)c3ccc(O)c(O)c3Cl)CC2)[C@H](C(=O)O)N2C(=O)C[C@H]2S1(=O)=O [Example 42, (2S,3R,5R)-3-((E)-(2-(1-(2-chloro-3,4-dihydroxybenzoyl)piperidine-4-carbonyl)hydrazono)methyl)-3-methyl-7-oxo-4-thia-1-azabicyclo[3.2.0]heptane-2-carboxylic acid 4,4-dioxide]	1 (≈ 1.84 µM)	> 128	> 128	> 128	> 128	128 (≈ 236 µM)	> 128	2	8	> 128	2	8	> 128	2	4			
C[C@]1(/C=N/NC(=O)[C@H](CO)NC(=O)c2ccc(O)c(O)c2Cl)[C@H](C(=O)O)N2C(=O)C[C@H]2S1(=O)=O [Example 43, (2S,3R,5R)-3-((E)-(2-(2-(2-chloro-3,4-dihydroxybenzamido)-3-hydroxypropanoyl)hydrazono)methyl)-3-methyl-7-oxo-4-thia-1-azabicyclo[3.2.0]heptane-2-carboxylic acid 4,4-dioxide]	8 (≈ 15.4 µM)		> 128	> 128	> 128	> 128	> 128	4	4	> 128	4	8	> 128	4	4	8	8	4
C[C@]1(/C=N/NC(=O)CCNC(=O)c2ccc(O)c(O)c2Cl)[C@H](C(=O)O)N2C(=O)C[C@H]2S1(=O)=O [Example 60, (2S,3R,5R)-3-((E)-(2-(3-(2-chloro-3,4-dihydroxybenzamido)propanoyl)hydrazono)methyl)-3-methyl-7-oxo-4-thia-1-azabicyclo[3.2.0]heptane-2-carboxylic acid 4,4-dioxide]	2 (≈ 3.98 µM)	> 128	> 128	16 (≈ 31.8 µM)	> 128	> 128	64	2	1	> 128	2	8	> 128	2	8	2	2	1
C[C@H](NC(=O)c1ccc(O)c(O)c1Cl)C(=O)N/N=C/[C@@]1(C)[C@H](C(=O)O)N2C(=O)C[C@H]2S1(=O)=O [Example 62, (2S,3R,5R)-3-((E)-(2-((S)-2-(2-chloro-3,4-dihydroxybenzamido)propanoyl)hydrazono)methyl)-3-methyl-7-oxo-4-thia-1-azabicyclo[3.2.0]heptane-2-carboxylic acid 4,4-dioxide]	4 (≈ 7.95 µM)	> 128	> 128	> 128	> 128	128 (≈ 255 µM)	> 128	4	8	> 128	4	8	> 128	2	2			
C[C@]1(/C=N/NC(=O)CCNC(=O)c2ccc(O)c(O)c2)[C@H](C(=O)O)N2C(=O)C[C@H]2S1(=O)=O [Example 67, (2S,3R,5R)-3-((E)-(2-(3-(3,4-dihydroxybenzamido)propanoyl)hydrazono)methyl)-3-methyl-7-oxo-4-thia-1-azabicyclo[3.2.0]heptane-2-carboxylic acid 4,4-dioxide]	4 (≈ 8.54 µM)	> 128	> 128	128 (≈ 273 µM)	> 128	128 (≈ 273 µM)	> 128	4	1	> 128	2	8	> 128	4	8	4	4	8

— patent publication US11040987B2 (TenNor Therapeutics Limited, priority 2019, dated 2021)
